Test results published in US6013618A, “Perfumes having odor longevity benefits” (Procter & Gamble Company, priority 1998, dated 2000).

Test: Fragrance Release Half-life: hydrolysis kinetics of pro-accords monitored by HPLC
Type: physicochemical
Conditions: 10 mL phosphate buffer (NaH2PO4/H3PO4, approximately pH 2.5) admixed with 90 mL dioxane, 30° C.
Description: Fragrance Release Half-life
The pro-accords useful in the perfume and fine flagrance compositions of the present invention generally have a delayed release of final fragrance accord in order to achieve the increased fragrance longevity benefits described herein. However, the pro-accords generally also deliver the fragrance accords during a time period useful to the formulator, for example, within a time period desirable to the consumer.
For the purposes of the present invention the pro-accords generally have a "Fragrance Release Half-life" of less than or equal to 12 hours when measured in NaH2 PO4 buffer at pH 2.5 and greater than or equal to 0.1 hour when measured in NaH2 PO4 buffer at pH 5.3. The "Fragrance Release Half-life" is defined herein as follows
Pro-accords deliver their corresponding mixture of fragrance raw materials or fragrance accords according to the equation: […]
wherein the accord which is released may be a binary accord or a multiple fragrance raw material accord.
The rate at which the accord is released is defined by the formula: […]
An example of the procedure used to measure the suitability of a pro-accord for use in the fragrance delivery systems at pH 2.5 is as follows. […] Next 10 mL of the phosphate buffer is admixed with 90 mL of dioxane and the pro-fragrance to be analyzed is added. The hydrolysis kinetics are then monitored by conventional HPLC at 30° C. […]

SMILES | t1/2 (Fragrance Release Half-life) [h]
c1ccc(CCOC(OCCc2ccccc2)OCCc2ccccc2)cc1 [tris(phenylethyl) orthoformate, Tris(phenylethyl) Orthoformate] | 5.9
c1ccc(CCOC(OCCc2ccccc2)(OCCc2ccccc2)OCCc2ccccc2)cc1 [tetrakis(phenylethyl) orthocarbonate, Tetrakis(phenylethyl) Orthocarbonate] | 4.8
